# In patent US11484539B2, “Compounds and their uses for alleviating menopause-associated symptoms” (Estetra SPRL, priority 2018, dated 2022):
# Test system: post-menopausal women
# Test: Weekly frequency of moderate to severe VMS, dose-finding study
# Format: in vivo
# Conditions: for Difference with placebo, LS adjusted mean, absolute change in weekly frequency of moderate to severe VMS / Difference with placebo, LS adjusted mean, relative change in weekly frequency of moderate to severe VMS: 5 mg E4 vs placebo; for LS adjusted mean change from baseline in weekly frequency of moderate to severe VMS / LS adjusted mean relative change (%) from baseline in weekly frequency of moderate to severe VMS: 10 mg E4
# Text: To determine the Minimum Effective Dose (MED), firstly the selection criteria required that patients presented at least 7 moderate to severe VMS/day or at least 50 moderate to severe VMS/week in the week preceding randomization. Secondly, a placebo group was included in a double-blind fashion. Thirdly, the total patient number was such that statistical significance could be obtained between separate arms of the study. Fourthly, the absolute change from baseline in weekly frequency of moderate to severe VMS was taken into account. An analysis of covariance (ANCOVA) was performed based on the untransformed change in weekly frequency of moderate to severe VMS from baseline. Finally, the change in severity from baseline was evaluated. For this, the Severity Scoring System of VMS was documented by the subjects as follows: • a score of Mild (1) for a sensation of heat without sweating; • a score of Moderate (2) for a sensation of heat with sweating/the subject is able to continue activity; and • a score of Severe (3) for a sensation of heat with sweating/which causes cessation of activity.
# Enrolment was approximately 18 months. Individual subject participation was up to 27 weeks: up to 6 weeks pre-screening and washout, up to 4 weeks screening and run-in period, up to 91 days (13 weeks) of E4/placebo treatment followed by 2 weeks (14 days) of progestin therapy and a Follow up visit 1 week after completion of progestin therapy in non-hysterectomised subjects only.
# To define the minimum effective dose (MED) of the oral dose of E4 by evaluating changes in frequency and in severity of moderate to severe vasomotor symptoms (VMS).
# This was a prospective, multicentre, randomised, placebo-controlled, double-blinded, dose-finding study.
# Eligible subjects were hysterectomised and non-hysterectomised post-menopausal women aged 40 to 65 years, inclusive, presenting at least 7 moderate to severe hot flushes/day or at least 50 moderate to severe hot flushes/week.
# The subjects have met all of the following inclusion criteria at the randomization visit. These criteria were assessed during the screening period: • 1. Women aged 40 to 65 years, inclusive, presenting at least 7 moderate to severe hot flushes/day or at least 50 moderate to severe hot flushes/week in the week preceding randomization. • 2. Body Mass Index (BMI) between 18.0 and 35.0 kg/m^2, inclusive. • 3. Post-menopausal status defined as levels of follicle stimulating hormone (FSH) >40 IU/L and: • amenorrhoea for at least 12 consecutive months or, • amenorrhoea for at least 6 months with estradiol (E2)<20 pg/mL or, • at least 6 weeks post-surgical bilateral oophorectomy with or without hysterectomy with a copy of the pathology report or a statement on letterhead from the subject's physician documenting both ovaries were removed is required. • 4. For non-hysterectomised women: intact uterus with bi-layer endometrial thickness […] on TVUS. • 5. Negative pregnancy test. • 6. Good physical and mental health, in the judgement of the Principal Investigator (PI), on the basis of medical, surgical and gynaecological history, physical examination, gynaecological examination, clinical laboratory, and vital signs. • 7. Subject has provided signed and dated written informed consent before admission to the study. • 8. Subject is able to understand and comply with the protocol requirements, instructions, and protocol-stated restrictions. Exclusion Criteria:
# All treatments (Estetrol, hereinafter, E4, [2.5 mg, 5 mg, 10 mg, 15 mg] capsule) were administered once daily (QD) per os for at least 12 consecutive weeks until the last biological assessments (Day 91 maximum) had been performed.
# In order to analyse the data recorded in this study, treatment groups have been compared using an ANCOVA (analysis of covariance) with respect to the change in weekly frequency of moderate to severe VMS from baseline to weeks 4 and 12. […]
# [1] = week 4, ANCOVA with study centre
# [2] = week 12, ANCOVA with study centre
compound,measurement,setting,value
"C[C@]12CC[C@@H]3c4ccc(O)cc4CC[C@H]3[C@@H]1[C@@H](O)[C@@H](O)[C@@H]2O [E4, 1,3,5 (10)-estratrien-3,15alpha,16alpha,17beta-tetrol]","Relative change (% from baseline) in weekly frequency of moderate to severe VMS, mean","5 mg E4 QD per os, week 2",−33%
same,Mean change from baseline in weekly frequency of moderate to severe VMS,"5 mg E4 QD per os, week 3",−24.38
same,"Relative change (% from baseline) in weekly frequency of moderate to severe VMS, mean","5 mg E4 QD per os, week 3",−38%
same,Mean change from baseline in weekly frequency of moderate to severe VMS,"5 mg E4 QD per os, week 4",−27.57
same,"Relative change (% from baseline) in weekly frequency of moderate to severe VMS, mean","5 mg E4 QD per os, week 4",−43%
same,Mean change from baseline in weekly frequency of moderate to severe VMS,"5 mg E4 QD per os, week 5",−30.70
same,"Relative change (% from baseline) in weekly frequency of moderate to severe VMS, mean","5 mg E4 QD per os, week 5",−47%
same,Mean change from baseline in weekly frequency of moderate to severe VMS,"5 mg E4 QD per os, week 6",−38.02
same,"Relative change (% from baseline) in weekly frequency of moderate to severe VMS, mean","5 mg E4 QD per os, week 6",−57%
same,Mean change from baseline in weekly frequency of moderate to severe VMS,"5 mg E4 QD per os, week 7",−38.23
same,"Relative change (% from baseline) in weekly frequency of moderate to severe VMS, mean","5 mg E4 QD per os, week 7",−57%
same,Mean change from baseline in weekly frequency of moderate to severe VMS,"5 mg E4 QD per os, week 8",−38.55
same,"Relative change (% from baseline) in weekly frequency of moderate to severe VMS, mean","5 mg E4 QD per os, week 8",−57%
same,Mean change from baseline in weekly frequency of moderate to severe VMS,"5 mg E4 QD per os, week 9",−39.34
same,"Relative change (% from baseline) in weekly frequency of moderate to severe VMS, mean","5 mg E4 QD per os, week 9",−59%
same,Mean change from baseline in weekly frequency of moderate to severe VMS,"5 mg E4 QD per os, week 10",−39.83
same,"Relative change (% from baseline) in weekly frequency of moderate to severe VMS, mean","5 mg E4 QD per os, week 10",−60%
same,Mean change from baseline in weekly frequency of moderate to severe VMS,"5 mg E4 QD per os, week 11",−41.46
same,"Relative change (% from baseline) in weekly frequency of moderate to severe VMS, mean","5 mg E4 QD per os, week 11",−63%
same,Mean change from baseline in weekly frequency of moderate to severe VMS,"5 mg E4 QD per os, week 12",−40.60
same,"Relative change (% from baseline) in weekly frequency of moderate to severe VMS, mean","5 mg E4 QD per os, week 12",−62%
same,"Difference with placebo, LS adjusted mean, absolute change in weekly frequency of moderate to severe VMS",[1],6.359
same,"Difference with placebo, LS adjusted mean, relative change in weekly frequency of moderate to severe VMS",[1],0.06833
same,"Difference with placebo, LS adjusted mean, absolute change in weekly frequency of moderate to severe VMS","week 4, without site effect",5.781
same,"Difference with placebo, LS adjusted mean, relative change in weekly frequency of moderate to severe VMS","week 4, without site effect",0.05854
same,"Difference with placebo, LS adjusted mean, absolute change in weekly frequency of moderate to severe VMS",[2],3.054
same,"Difference with placebo, LS adjusted mean, relative change in weekly frequency of moderate to severe VMS",[2],0.03978
same,"Difference with placebo, LS adjusted mean, absolute change in weekly frequency of moderate to severe VMS","week 12, without site effect",2.918
same,"Difference with placebo, LS adjusted mean, relative change in weekly frequency of moderate to severe VMS","week 12, without site effect",0.03671
same,LS adjusted mean change from baseline in weekly frequency of moderate to severe VMS,[1],−35.37
same,LS adjusted mean relative change (%) from baseline in weekly frequency of moderate to severe VMS,[1],-54.5%
same,LS adjusted mean change from baseline in weekly frequency of moderate to severe VMS,"week 4, without site effect",−35.87
same,LS adjusted mean relative change (%) from baseline in weekly frequency of moderate to severe VMS,"week 4, without site effect",-55.5%
same,LS adjusted mean change from baseline in weekly frequency of moderate to severe VMS,[2],−45.84
same,LS adjusted mean relative change (%) from baseline in weekly frequency of moderate to severe VMS,[2],-70%
same,LS adjusted mean change from baseline in weekly frequency of moderate to severe VMS,"week 12, without site effect",−46.53
same,LS adjusted mean relative change (%) from baseline in weekly frequency of moderate to severe VMS,"week 12, without site effect",-71.7%
same,Mean change from baseline in weekly frequency of moderate to severe VMS,"10 mg E4 QD per os, week 1",−13.37
same,"Relative change (% from baseline) in weekly frequency of moderate to severe VMS, mean","10 mg E4 QD per os, week 1",−21%
same,Mean change from baseline in weekly frequency of moderate to severe VMS,"10 mg E4 QD per os, week 2",−23.47
same,"Relative change (% from baseline) in weekly frequency of moderate to severe VMS, mean","10 mg E4 QD per os, week 2",−37%
same,Mean change from baseline in weekly frequency of moderate to severe VMS,"10 mg E4 QD per os, week 3",−31.34
same,"Relative change (% from baseline) in weekly frequency of moderate to severe VMS, mean","10 mg E4 QD per os, week 3",−48%
same,Mean change from baseline in weekly frequency of moderate to severe VMS,"10 mg E4 QD per os, week 4",−36.38
same,"Relative change (% from baseline) in weekly frequency of moderate to severe VMS, mean","10 mg E4 QD per os, week 4",−55%
same,Mean change from baseline in weekly frequency of moderate to severe VMS,"10 mg E4 QD per os, week 5",−39.07
same,"Relative change (% from baseline) in weekly frequency of moderate to severe VMS, mean","10 mg E4 QD per os, week 5",−60%
same,Mean change from baseline in weekly frequency of moderate to severe VMS,"10 mg E4 QD per os, week 6",−42.56
same,"Relative change (% from baseline) in weekly frequency of moderate to severe VMS, mean","10 mg E4 QD per os, week 6",−65%
same,Mean change from baseline in weekly frequency of moderate to severe VMS,"10 mg E4 QD per os, week 7",−43.30
same,"Relative change (% from baseline) in weekly frequency of moderate to severe VMS, mean","10 mg E4 QD per os, week 7",−66%
